Laboratory results as given in patent US20240317708A1, “INHIBITORS OF TRANSGLUTAMINASES” (ZEDIRA GMBH, priority 2021, published 2024).

Assays:
[1] = target: T1, recombinant human transglutaminase 2 (Homo sapiens, UniProt P21980); assay: Transglutaminase assay (dansylcadaverine incorporation into dimethylcasein, DCC-assay); assay type: biochemical; conditions: for IC50: recombinant human TG2 10 nM, dansylcadaverine/dimethylcasein, 37° C.
T1 construct: purchased Zedira T022
T1 sequence (P21980 1-687): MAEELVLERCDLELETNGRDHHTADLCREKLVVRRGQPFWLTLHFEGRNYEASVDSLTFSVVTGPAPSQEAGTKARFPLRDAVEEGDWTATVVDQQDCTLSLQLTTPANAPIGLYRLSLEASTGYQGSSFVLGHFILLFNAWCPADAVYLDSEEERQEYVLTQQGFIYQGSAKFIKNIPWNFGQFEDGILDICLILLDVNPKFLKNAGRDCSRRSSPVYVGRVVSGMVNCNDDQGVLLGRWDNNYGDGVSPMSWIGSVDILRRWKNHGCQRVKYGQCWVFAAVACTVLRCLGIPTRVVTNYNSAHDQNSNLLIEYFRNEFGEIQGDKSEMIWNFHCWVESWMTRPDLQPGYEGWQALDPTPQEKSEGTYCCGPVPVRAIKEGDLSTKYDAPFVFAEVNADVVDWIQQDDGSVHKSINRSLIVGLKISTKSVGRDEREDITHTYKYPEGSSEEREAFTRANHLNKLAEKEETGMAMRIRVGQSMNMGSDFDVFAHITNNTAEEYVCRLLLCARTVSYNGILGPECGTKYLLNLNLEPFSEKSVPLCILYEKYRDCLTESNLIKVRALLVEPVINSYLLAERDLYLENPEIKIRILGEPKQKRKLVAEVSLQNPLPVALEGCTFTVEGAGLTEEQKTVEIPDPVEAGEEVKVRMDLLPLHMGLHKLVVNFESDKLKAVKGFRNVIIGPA
Procedure: For the determination of potency of inhibitors against tissue transglutaminase, the incorporation of dansylcadaverine into dimethylcasein (Zedira product T036, Lorand et al., Anal Biochem, 1971, 44:221-31) was measured using recombinant human transglutaminase 2 (Zedira Product T022).
The tissue transglutaminase is diluted in buffer (50 mM Tris-HCl, 7.5 mM CaCl2, 150 mM NaCl, pH=7.4). The final concentration of TG2 in the assay is 10 nM.
A 10 mM inhibitor stock solution is prepared in DMSO, and from this a serial 1:2-fold dilution series is prepared also in DMSO. Each of the initial dilutions is subsequently diluted 1:50-fold with buffer (50 mM Tris-HCl, 7.5 mM CaCl2, 150 mM NaCl, pH=7.4) to yield the final working dilutions containing 2% (v/v) DMSO.
15 μl of inhibitor working dilution are added per well of a 96 well microtiter plate. As control, 15 μl of a 2% (v/v) DMSO solution prepared using the buffer mentioned above are added per well.
Immediately before starting the assay, 600 μl transglutaminase working solution are added to 11.4 ml assay buffer (50 mM Tris-HCl, 10 mM CaCl2, 10 mM glutathione, 2.5% glycerol, 16.7 μM dansylcadaverine, 4 μM N,N-dimethylcasein, 200 mM NaCl, pH=8.0). 285 μl of this reaction mix are added per well containing the inhibitor.
Increase in fluorescence is measured using λex=330 nm and λem=500 nm at 37° C. for 30 min. A slope of the increase in fluorescence between 20 and 30 min is calculated for determination of the IC50 value (inhibitor concentration at which 50% of the initial activity is blocked).
Analysis of enzymatic activity is performed by calculation of the slope of an increase in fluorescence intensity. IC50 values are calculated by plotting the enzymatic activity (as percentage from control containing 2% DMSO instead of inhibitor) against the inhibitor concentration. IC50 is defined as the inhibitor concentration blocking 50% of initial enzyme activity.

[2] = Log D shake flask method (octanol / PBS pH 7.4, HPLC); assay type: physicochemical; conditions: octanol/phosphate-buffered saline (PBS); octanol / PBS pH 7.4, shake flask
Procedure: In order to classify the inventive compounds according to their lipophilicity, Log D values (distribution coefficient) were determined by means of the well-established shake flask method, measuring the partition of a compound between an octanol and phosphate-buffered saline (PBS, pH 7.4) by HPLC.

[3] = Caco-2 permeability assay (CacoReady kit); assay type: in vitro ADME; conditions: human
Procedure: Permeability coefficients (Papp values) were obtained from Caco-2 barrier studies predicting oral/intestinal bioavailability of the tested compounds. The assays were performed by using CacoReady™ ready-to-use kits from ReadyCell according to the manufacturers protocol.

| Compound | IC50 [1] | logD [2] | Papp [3] | fold more potent compared to Ref. 3 ([1]; DCC-assay IC50 ratio vs Ref. 3 (A8)) |
| --- | --- | --- | --- | --- |
| COC(=O)/C=C/CC[C@H](NC(=O)c1nc[nH]n1)C(=O)Nc1cccn(CC(=O)NC2C3CC4CC(C3)CC2C4)c1=O (stereo partly drawn) [III-104, (S,E)-methyl 7-(1-(2-(2-adamantylamino)-2-oxoethyl)-2-oxo-1,2-dihydropyridin-3-ylamino)-7-oxo-6-(1H-1,2,4-triazole-3-carboxamido)hept-2-enoate] | 25 to 250 nM | 1 to 3 | < 1 ×10⁻⁶ cm/s |  |
| COC(=O)/C=C/CC[C@H](NC(=O)c1cc(Cl)c(Cl)s1)C(=O)Nc1cccn(CC(=O)NC2C3CC4CC(C3)CC2C4)c1=O (stereo partly drawn) [III-20, (S,E)-methyl 6-(4,5-dichlorothiophene-2-carboxamido)-7-(1-(2-(2-adamantylamino)-2-oxoethyl)-2-oxo-1,2-dihydropyridin-3-ylamino)-7-oxohept-2-enoate] | < 25 nM | 3 to 5 | 1 to 10 ×10⁻⁶ cm/s |  |
| COC(=O)/C=C/CC[C@H](NC(=O)c1cncn1C)C(=O)Nc1cccn(CC(=O)N[C@@H]2C[C@H]3CC[C@@H]2C3)c1=O [III-62, (S,E)-methyl 7-(1-(2-((1R,2R,4S)-bicyclo[2.2.1]heptan-2-ylamino)-2-oxoethyl)-2-oxo-1,2-dihydropyridin-3-ylamino)-6-(1-methyl-1H-imidazole-5-carboxamido)-7-oxohept-2-enoate] | < 25 nM | 1 to 3 | < 1 ×10⁻⁶ cm/s |  |
| COC(=O)/C=C/CC[C@H](NC(=O)c1cc(Cl)sc1Cl)C(=O)Nc1cccn(CC(=O)NC23CC4CC(C)(CC(C)(C4)C2)C3)c1=O [III-124, (S,E)-methyl 6-(2,5-dichlorothiophene-3-carboxamido)-7-(1-(2-(3,5-dimethyladamantane-1-amino)-2-oxoethyl)-2-oxo-1,2-dihydropyridin-3-ylamino)-7-oxohept-2-enoate] | < 25 nM | 3 to 5 | 1 to 10 ×10⁻⁶ cm/s |  |
| COC(=O)/C=C/CC[C@H](NC(=O)c1sc(C(F)(F)F)nc1C)C(=O)Nc1cccn(CC(=O)N[C@@H]2C[C@@H]3CC[C@H]2C3)c1=O [III-125, (S,E)-methyl 7-(1-(2-((1S,2R,4R)-bicyclo[2.2.1]heptan-2-ylamino)-2-oxoethyl)-2-oxo-1,2-dihydropyridin-3-ylamino)-6-(4-methyl-2-(trifluoromethyl)thiazole-5-carboxamido)-7-oxohept-2-enoate] | < 25 nM | 1 to 3 | 1 to 10 ×10⁻⁶ cm/s |  |
| COC(=O)/C=C/CC[C@H](NC(=O)c1oc2ccccc2c1C)C(=O)Nc1cccn(CC(=O)NC(C)C23CC4CC(CC(C4)C2)C3)c1=O (stereo partly drawn) [III-57, (S,E)-methyl 7-(1-(2-(1-(1-adamantyl)ethanamino)-2-oxoethyl)-2-oxo-1,2-dihydropyridin-3-ylamino)-6-(3-methylbenzofuran-2-carboxamido)-7-oxohept-2-enoate] | 25 to 250 nM | 3 to 5 | 1 to 10 ×10⁻⁶ cm/s |  |
| COC(=O)/C=C/CC[C@H](NC(=O)c1oc2ccccc2c1C)C(=O)Nc1cccn(CC(=O)NC2(C(=O)OC)C3CC4CC(C3)CC2C4)c1=O (stereo partly drawn) [III-44, (S,E)-methyl 7-(1-(2-(2-methyladamantane-2-carboxylate-2-amino)-2-oxoethyl)-2-oxo-1,2-dihydropyridin-3-ylamino)-6-(3-methylbenzofuran-2-carboxamido)-7-oxohept-2-enoate] | 25 to 250 nM | 3 to 5 | < 1 ×10⁻⁶ cm/s |  |
| COC(=O)/C=C/CC[C@H](NC(=O)c1coc2ccccc12)C(=O)Nc1cccn(CC(=O)NC2C3CC4CC(C3)CC2C4)c1=O (stereo partly drawn) [III-106, (S,E)-methyl 6-(benzofuran-3-carboxamido)-7-(1-(2-(2-adamantylamino)-2-oxoethyl)-2-oxo-1,2-dihydropyridin-3-ylamino)-7-oxohept-2-enoate] | 25 to 250 nM | 3 to 5 | 1 to 10 ×10⁻⁶ cm/s |  |
| COC(=O)/C=C/CC[C@H](NC(=O)c1ccnn1C)C(=O)Nc1cccn(CC(=O)N[C@H]2C[C@H]3CC[C@]2(C)C3(C)C)c1=O [III-122, (S,E)-methyl 6-(1-methyl-1H-pyrazole-5-carboxamido)-7-oxo-7-(2-oxo-1-(2-oxo-2-((1R,2S,4R)-1,7,7-trimethylbicyclo[2.2.1]heptan-2-ylamino)ethyl)-1,2-dihydropyridin-3-ylamino)hept-2-enoate] | 25 to 250 nM | 1 to 3 | < 1 ×10⁻⁶ cm/s |  |
| COC(=O)/C=C/CC[C@H](NC(=O)c1ccnnc1)C(=O)Nc1cccn(CC(=O)NC2C3CC4CC(C3)CC2C4)c1=O (stereo partly drawn) [III-85, (S,E)-methyl 7-(1-(2-(2-adamantylamino)-2-oxoethyl)-2-oxo-1,2-dihydropyridin-3-ylamino)-7-oxo-6-(pyridazine-4-carboxamido)hept-2-enoate] | < 25 nM | 1 to 3 | < 1 ×10⁻⁶ cm/s |  |
| COC(=O)/C=C/CC[C@H](NC(=O)c1oc2ccccc2c1C)C(=O)Nc1cccn(CC(=O)NC23CCC(CC2)C3)c1=O [III-64, (S,E)-methyl 7-(1-(2-(bicyclo[2.2.1]heptan-1-ylamino)-2-oxoethyl)-2-oxo-1,2-dihydropyridin-3-ylamino)-6-(3-methylbenzofuran-2-carboxamido)-7-oxohept-2-enoate] | < 25 nM | 1 to 3 | 1 to 10 ×10⁻⁶ cm/s |  |
| COC(=O)/C=C/CC[C@H](NC(=O)c1csc2ccccc12)C(=O)Nc1cccn(CC(=O)NC2C3CC4CC(C3)CC2C4)c1=O (stereo partly drawn) [III-107, (S,E)-methyl 6-(benzo[b]thiophene-3-carboxamido)-7-(1-(2-(2-adamantylamino)-2-oxoethyl)-2-oxo-1,2-dihydropyridin-3-ylamino)-7-oxohept-2-enoate] | 25 to 250 nM | 3 to 5 | 1 to 10 ×10⁻⁶ cm/s |  |
| COC(=O)/C=C/CC[C@H](NC(=O)c1cncn1C)C(=O)Nc1cccn(CC(=O)N[C@@H]2C[C@@H]3CC[C@H]2C3)c1=O [III-58, (S,E)-methyl 7-(1-(2-((1S,2R,4R)-bicyclo[2.2.1]heptan-2-ylamino)-2-oxoethyl)-2-oxo-1,2-dihydropyridin-3-ylamino)-6-(1-methyl-1H-imidazole-5-carboxamido)-7-oxohept-2-enoate] | < 25 nM | 1 to 3 | < 1 ×10⁻⁶ cm/s |  |
| O=C(/C=C/CC[C@H](NC(=O)c1nc(Cl)sc1Cl)C(=O)Nc1cccn(CC(=O)NC23CC(C2)C3)c1=O)NCc1ccccc1 [III-154, (S,E)-N1-benzyl-N7-(1-(2-(bicyclo[1.1.1]pentan-1-ylamino)-2-oxoethyl)-2-oxo-1,2-dihydropyridin-3-yl)-6-(2,5-dichlorothiazole-4-carboxamido)hept-2-enediamide] | 250 to 1500 nM | 1 to 3 | 1 to 10 ×10⁻⁶ cm/s |  |
| CCC(CC)CNC(=O)Cn1cccc(NC(=O)[C@H](CC/C=C/C(=O)OC)NC(=O)c2cncn2C)c1=O [Ref. 2, reference compound] | 25 to 250 nM |  |  | 80 fold |
| COC(=O)/C=C/CC[C@H](NC(=O)c1cn[nH]n1)C(=O)Nc1cccn(CC(=O)NC2C3CC4CC(C3)CC2C4)c1=O (stereo partly drawn) [III-102, (S,E)-methyl 7-(1-(2-(2-adamantylamino)-2-oxoethyl)-2-oxo-1,2-dihydropyridin-3-ylamino)-7-oxo-6-(1H-1,2,3-triazole-4-carboxamido)hept-2-enoate] | 25 to 250 nM |  |  |  |
